For 21 compounds, EC50 and IC50 results are on record in patent publication US9844536B2, “3-(1H-imidazo[4,5-C]pyridin-2-yl)-1H-pyrazolo[3,4-C]pyridine and therapeutic uses thereof” (Samumed, LLC, priority 2014, dated 2017).

Assay [1] deals with LL29 cells. As to the kind of experiment: Inhibition of the fibrotic process (αSMA staining) in TGF-β1 treated primary human fibroblasts from IPF patients. The format is cell-based. The note with it: Fibroblast, 96 h, TGF-β1 20 ng/mL, 4 days, dose-response 10 μM to 1.87 nM, read-out: Inhibition of fibrosis EC50. An excerpt: The above synthesized compounds were screened using primary human fibroblasts (derived from IPF patients) treated with TGF-β1 to determine their ability to inhibit the fibrotic process.
Primary human fibroblasts derived from IPF patients (LL29 cells) [^1Xiaoqiu Liu, et. al., “Fibrotic Lung Fibroblasts Show Blunted Inhibition by cAMP Due to Deficient cAMP Response Element-Binding Protein Phosphorylation”, Journal of Pharmacology and Experimental Therapeutics (2005), 315(2), 678-687; ^2Watts, K. L., et. al., “RhoA signaling modulates cyclin D1 expression in human lung fibroblasts; implications for idiopathic pulmonary fibrosis”, Respiratory Research (2006), 7(1), 88] were obtained from American Type Culture Collection (ATCC) and expanded in F12 medium supplemented with 15% Fetal Bovine Serum and Penicillin/Streptomycin.
Each compound was dissolved in DMSO as a 10 mM stock and used to prepare compound source plates. Serial dilution (1:2, 11-point dose-response curves from 10 μM to 1.87 nM) and compound transfer was performed using the ECHO 550 (Labcyte, Sunnyvale, Calif.) into 384-well clear bottom assay plates (Greiner Bio-One) with appropriate DMSO backfill for a final DMSO concentration of 0.1%. LL29 cells were plated at 1,500 cells/well in 80 μl/well F12 medium supplemented with 1% Fetal Bovine Serum. One hour after addition of the cells, TGF-β1 (Peprotech; 20 ng/mL) was added to the plates to induce fibrosis (ref. 1 and 2 above). Wells treated with TGF-β1 and containing DMSO were used as controls. Cells were incubated at 37° C. and 5% CO2 for 4 days. Following incubation for 4 days, SYTOX green nucleic acid stain (Life Technologies [Thermo Fisher Scientific]) was added to the wells at a final concentration of 1 uM and incubated at room temperature for 30 min. Cells were then fixed using 4% formaldehyde (Electron Microscopy Sciences), washed 3 times with PBS followed by blocking and permeabilization using 3% Bovine Serum Albumin (BSA; Sigma) and 0.3% Triton X-100 (Sigma) in PBS. Cells were then stained with antibody specific to α-smooth muscle actin (αSMA; Abcam) (ref. 1 and 2 above) in 3% Bovine Serum Albumin (BSA; Sigma) and 0.3% Triton X-100 (Sigma) in PBS, and incubated overnight at 4° C. Cells were then washed 3 times with PBS, followed by incubation with Alexa Flor-647 conjugated secondary antibody (Life Technologies [Thermo Fisher Scientific]) and DAPI at room temperature for 1 hour. Cells were then washed 3 times with PBS and plates were sealed for imaging. αSMA staining was imaged by excitation at 630 nm and emission at 665 nm and quantified using the Compartmental Analysis program on the CellInsight CX5 (Thermo Scientific). Dead or apoptotic cells were excluded from analysis based on positive SYTOX green staining. % of total cells positive for αSMA were counted in each well and normalized to the average of 11 wells treated with TGF-31 on the same plate using Dotmatics' Studies Software. The normalized averages (fold change over untreated) of 3 replicate wells for each compound concentration were used to create dose-responses curves and EC50 values were calculated using non-linear regression curve fit in the Dotmatics' Studies Software. The EC50 values are reported.

Assay [2] has as its system Wnt pathway (Sp5-Luc reporter, SW480 cells). As to the kind of experiment: Sp5-Luc reporter gene screening assay for Wnt activity in SW480 colon carcinoma cells. The format is cell-based. The conditions noted are these: Homo sapiens. In outline: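 IC50 values come from variable-slope four-parameter fits of luciferase signal normalized to DMSO wells. Stable Sp5-Luc reporter SW480 colon carcinoma cells were exposed to compounds in a 3-fold dilution series (source plates from 10 mM stock) for forty-two hours at 37 °C.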
In general terms: A reporter such as luciferase makes a cellular process visible.

For `FC1(F)CCN(Cc2cncc(-c3cc4c(-c5nc6c(-c7cccs7)nccc6[nH]5)n[nH]c4cn3)c2)C1` [Compound 337, 5-(5-((3,3-Difluoropyrrolidin-1-yl)methyl)pyridin-3-yl)-3-(4-(thiophen-2-yl)-1H-imidazo[4,5-c]pyridin-2-yl)-1H-pyrazolo[3,4-c]pyridine], the concentration giving a half-maximal response (EC50) in assay [1] is at most 9 nM. Further, inhibition in assay [2] was half-maximal at 15.2 nM (IC50).
As to `Cc1ncc(-c2cc3c(-c4nc5c(-c6cccc(F)c6)nccc5[nH]4)n[nH]c3cn2)n1C` [Compound 941, 5-(1,2-Dimethyl-1H-imidazol-5-yl)-3-(4-(3-fluorophenyl)-1H-imidazo[4,5-c]pyridin-2-yl)-1H-pyrazolo[3,4-c]pyridine], in assay [1], the concentration giving a half-maximal response (EC50) stood at 76 nM. Also, the IC50 in assay [2] worked out at 1010 nM.
As for `CCCC(=O)Nc1cncc(-c2cc3c(-c4nc5c(-c6ccncc6)nccc5[nH]4)n[nH]c3cn2)c1` [Compound 121, N-(5-(3-(4-(Pyridin-4-yl)-1H-imidazo[4,5-c]pyridin-2-yl)-1H-pyrazolo[3,4-c]pyridin-5-yl)pyridin-3-yl)butyramide], in assay [1], the EC50 is at least 9990 nM. The 50% inhibitory concentration (IC50) in assay [2] is over 10000 nM.
Consider `Cc1ccc(-c2nccc3[nH]c(-c4n[nH]c5cnc(-c6cncc(NC(=O)C(C)(C)C)c6)cc45)nc23)s1` [Compound 372, N-(5-(3-(4-(5-Methylthiophen-2-yl)-1H-imidazo[4,5-c]pyridin-2-yl)-1H-pyrazolo[3,4-c]pyridin-5-yl)pyridin-3-yl)pivalamide], for which, in assay [1], the EC50 came out at 1080 nM. In assay [2], this compound showed an IC50 of 24.6 nM.
In the same order, the values of `Fc1ccc(-c2nccc3[nH]c(-c4n[nH]c5cnc(-c6cncc(CN7CCCC7)c6)cc45)nc23)cc1` [Compound 40, 3-(4-(4-Fluorophenyl)-1H-imidazo[4,5-c]pyridin-2-yl)-5-(5-(pyrrolidin-1-ylmethyl)pyridin-3-yl)-1H-pyrazolo[3,4-c]pyridine] are at least 9990 nM and over 10000 nM.
For the compound `O=C(Nc1cncc(-c2cc3c(-c4nc5c(-c6ccc(F)s6)nccc5[nH]4)n[nH]c3cn2)c1)C1CCC1` [Compound 358, N-(5-(3-(4-(5-Fluorothiophen-2-yl)-1H-imidazo[4,5-c]pyridin-2-yl)-1H-pyrazolo[3,4-c]pyridin-5-yl)pyridin-3-yl)cyclobutanecarboxamide], the EC50 in assay [1] came to 40 nM. The IC50 in assay [2] amounted to 13.7 nM.
Consider `CN(C)Cc1cncc(-c2cc3c(-c4nc5c(N6CCCCC6)nccc5[nH]4)n[nH]c3cn2)c1` [Compound 169, N,N-Dimethyl-1-(5-(3-(4-(piperidin-1-yl)-1H-imidazo[4,5-c]pyridin-2-yl)-1H-pyrazolo[3,4-c]pyridin-5-yl)pyridin-3-yl)methanamine], for which the EC50 in assay [1] worked out at 3110 nM. Besides, in assay [2], the IC50 was over 10000 nM.
In the same order, the values of `Fc1cccc(-c2nccc3[nH]c(-c4n[nH]c5cnc(-c6cn[nH]c6)cc45)nc23)c1` [Compound 939, 3-(4-(3-Fluorophenyl)-1H-imidazo[4,5-c]pyridin-2-yl)-5-(1H-pyrazol-4-yl)-1H-pyrazolo[3,4-c]pyridine] are at most 9 nM and 1 nM.
In the same order, the values of `CC(C)C(=O)Nc1cncc(-c2cc3c(-c4nc5c(-c6cccnc6)nccc5[nH]4)n[nH]c3cn2)c1` [Compound 87, N-(5-(3-(4-(Pyridin-3-yl)-1H-imidazo[4,5-c]pyridin-2-yl)-1H-pyrazolo[3,4-c]pyridin-5-yl)pyridin-3-yl)isobutyramide] are at least 9990 nM and over 10000 nM.
For `c1cncc(-c2cc3c(-c4nc5cnccc5[nH]4)n[nH]c3cn2)c1` [Compound 238, 3-(1H-Imidazo[4,5-c]pyridin-2-yl)-5-(pyridin-3-yl)-1H-pyrazolo[3,4-c]pyridine], the concentration for a half-maximal effect (EC50) in assay [1] was at least 9990 nM. The IC50 in assay [2] was determined as 66.5 nM.
The matching figures for `c1cc2[nH]c(-c3n[nH]c4cnc(-c5cncc(CNCC6CCCC6)c5)cc34)nc2c(-c2ccoc2)n1` [Compound 310, 1-Cyclopentyl-N-((5-(3-(4-(furan-3-yl)-1H-imidazo[4,5-c]pyridin-2-yl)-1H-pyrazolo[3,4-c]pyridin-5-yl)pyridin-3-yl)methyl)methanamine]: over 10000 nM and 396 nM.
Regarding `Cc1ccc(-c2nccc3[nH]c(-c4n[nH]c5cnc(-c6cncc(NC(=O)C7CCCC7)c6)cc45)nc23)s1` [Compound 385, N-(5-(3-(4-(5-Methylthiophen-2-yl)-1H-imidazo[4,5-c]pyridin-2-yl)-1H-pyrazolo[3,4-c]pyridin-5-yl)pyridin-3-yl)cyclopentanecarboxamide], in assay [1], the EC50 is at most 9 nM. Besides, in assay [2], half-maximal inhibition (IC50) was put at 166 nM.
As to `CCCC(=O)Nc1cncc(-c2cc3c(-c4nc5c(-c6ccsc6)nccc5[nH]4)n[nH]c3cn2)c1` [Compound 277, N-(5-(3-(4-(Thiophen-3-yl)-1H-imidazo[4,5-c]pyridin-2-yl)-1H-pyrazolo[3,4-c]pyridin-5-yl)pyridin-3-yl)butyramide], the EC50 in assay [1] is at most 9 nM. For the same compound, the IC50 in assay [2] was determined as 71.5 nM.
`O=C(Nc1cncc(-c2cc3c(-c4nc5c(-c6ccccn6)nccc5[nH]4)n[nH]c3cn2)c1)C1CCC1` [Compound 150, N-(5-(3-(4-(Pyridin-2-yl)-1H-imidazo[4,5-c]pyridin-2-yl)-1H-pyrazolo[3,4-c]pyridin-5-yl)pyridin-3-yl)cyclobutanecarboxamide]: the EC50 in assay [1] is 1050 nM. This compound also came in with an IC50 in assay [2] of 71.5 nM.
As for `CN(C)CC(=O)Nc1cncc(-c2cc3c(-c4nc5c(-c6cccc(F)c6)nccc5[nH]4)n[nH]c3cn2)c1` [Compound 1437, 2-(Dimethylamino)-N-(5-(3-(4-(3-fluorophenyl)-1H-imidazo[4,5-c]pyridin-2-yl)-1H-pyrazolo[3,4-c]pyridin-5-yl)pyridin-3-yl)acetamide], the EC50 in assay [1] is 342 nM. In assay [2], this compound had an IC50 of 38 nM.
The matching figures for `O=C(Nc1cncc(-c2cc3c(-c4nc5c(-c6ccsc6)nccc5[nH]4)n[nH]c3cn2)c1)c1ccccc1` [Compound 271, N-(5-(3-(4-(Thiophen-3-yl)-1H-imidazo[4,5-c]pyridin-2-yl)-1H-pyrazolo[3,4-c]pyridin-5-yl)pyridin-3-yl)benzamide]: at most 9 nM and 189 nM.
In the case of `CC(C)(C)C(=O)Nc1cncc(-c2cc3c(-c4nc5c(-c6ccsc6)nccc5[nH]4)n[nH]c3cn2)c1` [Compound 268, N-(5-(3-(4-(Thiophen-3-yl)-1H-imidazo[4,5-c]pyridin-2-yl)-1H-pyrazolo[3,4-c]pyridin-5-yl)pyridin-3-yl)pivalamide], in assay [1], the EC50 is at least 9990 nM. In addition, in assay [2], half-maximal inhibition (IC50) was put at 41.3 nM.
With `CCCCC(=O)Nc1cncc(-c2cc3c(-c4nc5c(-c6ccoc6)nccc5[nH]4)n[nH]c3cn2)c1` [Compound 304, N-(5-(3-(4-(Furan-3-yl)-1H-imidazo[4,5-c]pyridin-2-yl)-1H-pyrazolo[3,4-c]pyridin-5-yl)pyridin-3-yl)pentanamide], in assay [1], the EC50 is at least 9990 nM. The compound further displayed a concentration for half-maximal inhibition (IC50) in assay [2] of 64 nM.
As to `Fc1cccc(-c2nccc3[nH]c(-c4n[nH]c5cnc(C6CCNCC6)cc45)nc23)c1` [Compound 937, 3-(4-(3-Fluorophenyl)-1H-imidazo[4,5-c]pyridin-2-yl)-5-(piperidin-4-yl)-1H-pyrazolo[3,4-c]pyridine], the EC50 in assay [1] came to 2610 nM. The IC50 in assay [2] was over 10000 nM.
Turning to `CC(C)C(=O)Nc1cncc(-c2cc3c(-c4nc5c(N6CCN(C)CC6)nccc5[nH]4)n[nH]c3cn2)c1` [Compound 217], the concentration giving a half-maximal response (EC50) in assay [1] was at least 9990 nM. This compound also showed an IC50 in assay [2] of 1080 nM.
In the case of `Fc1cccc(-c2nccc3[nH]c(-c4n[nH]c5cnc(-c6cncc(CN7CCC(F)(F)C7)c6)cc45)nc23)c1` [Compound 25, 5-(5-((3,3-Difluoropyrrolidin-1-yl)methyl)pyridin-3-yl)-3-(4-(3-fluorophenyl)-1H-imidazo[4,5-c]pyridin-2-yl)-1H-pyrazolo[3,4-c]pyridine], in assay [1], the EC50 came out at 185 nM. In assay [2], this compound showed an IC50 of 30.8 nM.

The EC50 is the concentration needed to bring the measured effect to its halfway point. By IC50 is commonly meant the concentration needed to halve the response being measured. Lower therefore signals higher potency.
